Paper PMC12301304 (Frontiers in Pharmacology, 2025)
Where two headings read alike, the source gives them in different places.

Key:
CYP2c13 = biological target: T1, CYP2c13 (Rattus norvegicus, UniProt P20814); set-up: from tissue; host or cells: live male Sprague-Dawley rats (whole animal, mainly liver); conditions: in vivo
T1 sequence (P20814 1-490): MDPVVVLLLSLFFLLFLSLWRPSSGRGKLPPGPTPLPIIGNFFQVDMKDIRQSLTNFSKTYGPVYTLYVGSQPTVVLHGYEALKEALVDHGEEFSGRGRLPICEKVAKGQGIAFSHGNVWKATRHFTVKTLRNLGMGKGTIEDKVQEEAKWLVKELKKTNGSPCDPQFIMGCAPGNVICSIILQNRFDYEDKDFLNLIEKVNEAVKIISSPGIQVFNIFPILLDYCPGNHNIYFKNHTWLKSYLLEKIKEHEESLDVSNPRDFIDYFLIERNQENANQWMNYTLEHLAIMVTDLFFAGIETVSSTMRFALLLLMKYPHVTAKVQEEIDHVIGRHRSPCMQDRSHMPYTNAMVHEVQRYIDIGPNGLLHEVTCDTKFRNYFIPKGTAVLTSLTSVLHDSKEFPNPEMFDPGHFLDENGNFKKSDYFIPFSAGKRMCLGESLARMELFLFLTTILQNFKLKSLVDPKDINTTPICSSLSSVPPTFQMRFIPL
Procedure: (§4) The effect of the Zhicaowu–Hezi combination on CYP450 enzymes in rats was evaluated by examining the pharmacokinetics of theophylline (CYP1a2), metoprolol (CYP2d2), bupropion (CYP2b1), omeprazole (CYP2c13), chlorzoxazone (CYP2e1), testosterone (CYP3a1), and diclofenac (CYP2c11).
(§5) The collected blood was placed in sodium heparin-treated centrifuge tubes and centrifuged at 4°C for 10 min at 3,000 RPM. […] After 10 min of sedimentation, the supernatant was extracted through a 0.22-μm microporous membrane, 20 μL of which was injected into HPLC. The pharmacokinetic parameters of each probe drug were calculated using the non-atrial compartment model in Drug and Statistics software (DAS, 3.0; Shanghai, China).

CYP2b1 [1] = biological target: T2, CYP2b1 (Rattus norvegicus, UniProt P00176); set-up: from tissue; host or cells: live male Sprague-Dawley rats (whole animal, mainly liver); conditions: in vivo
T2 sequence (P00176 1-491): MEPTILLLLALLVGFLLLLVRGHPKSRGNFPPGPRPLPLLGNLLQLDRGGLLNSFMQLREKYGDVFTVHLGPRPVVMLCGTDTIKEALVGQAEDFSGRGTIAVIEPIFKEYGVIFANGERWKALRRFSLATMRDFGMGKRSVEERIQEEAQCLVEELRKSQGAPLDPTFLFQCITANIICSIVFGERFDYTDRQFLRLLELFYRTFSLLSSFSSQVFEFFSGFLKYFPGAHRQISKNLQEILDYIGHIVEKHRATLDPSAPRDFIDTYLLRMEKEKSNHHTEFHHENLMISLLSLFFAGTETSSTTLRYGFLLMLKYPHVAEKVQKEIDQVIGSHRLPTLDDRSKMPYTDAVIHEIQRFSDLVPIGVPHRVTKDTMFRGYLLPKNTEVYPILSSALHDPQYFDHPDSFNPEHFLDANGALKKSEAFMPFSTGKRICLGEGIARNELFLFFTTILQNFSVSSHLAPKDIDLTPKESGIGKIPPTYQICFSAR
Procedure: as §4, §5

CYP2d2 = biological target: T3, CYP2d2 (Rattus norvegicus, UniProt P10634)
T3 sequence (P10634 1-500): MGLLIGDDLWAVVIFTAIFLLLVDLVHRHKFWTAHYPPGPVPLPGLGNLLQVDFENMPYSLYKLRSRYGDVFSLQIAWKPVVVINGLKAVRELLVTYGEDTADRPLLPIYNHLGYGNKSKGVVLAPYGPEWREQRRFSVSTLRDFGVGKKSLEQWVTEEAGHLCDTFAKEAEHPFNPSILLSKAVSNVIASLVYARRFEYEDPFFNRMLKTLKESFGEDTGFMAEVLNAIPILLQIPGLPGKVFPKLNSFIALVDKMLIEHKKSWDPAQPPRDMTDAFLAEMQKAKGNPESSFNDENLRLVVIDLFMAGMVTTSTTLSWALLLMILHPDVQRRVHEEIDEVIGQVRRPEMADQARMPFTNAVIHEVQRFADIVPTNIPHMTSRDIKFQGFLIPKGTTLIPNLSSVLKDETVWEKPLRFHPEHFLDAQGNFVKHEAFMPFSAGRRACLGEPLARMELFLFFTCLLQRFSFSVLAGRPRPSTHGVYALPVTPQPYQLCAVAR
Procedure: (§1) The effect of the Zhicaowu–Hezi combination on CYP450 enzymes in RLM was evaluated by assessing the metabolic clearance rates of theophylline, metoprolol, bupropion, mephenytoin (CYP2c13), chlorzoxazone, testosterone, and diclofenac.
(§2) On day 15, the rats were humanely euthanized, and liver tissues were excised for microsomal preparation. […] Livers from each group were repeatedly washed with ice-cold phosphate buffered saline (PBS). […] Subsequently, they were blotted dry with filter paper, weighed, and homogenized by adding 4 mL of ice-cold PBS per gram of liver tissue. The mixture was homogenized in an ice bath. The liver homogenate was subjected to centrifugation at 10,000 RPM for 20 min at 4°C. The resulting supernatant was then combined with an ice-cold 88-mmol/L CaCl2 solution at a 1:1 ratio, and the mixture was homogenized in an ice bath for 5 min. The resulting solution was then centrifuged at 25,000 × g for 30 min at 4°C. The supernatant was discarded and the precipitate was repeatedly resuspended in PBS–20% glycerol buffer. The precipitate was then stored in a separate bottle at −80°C for backup. The protein concentration of the prepared RLM was determined using a bicinchoninic acid protein assay kit.
(§3) Preincubation was conducted for 5 min in a water bath at 37°C, after which NADPH (1 mmol/L) was added, and incubation continued for 30 min at 37°C. Once the incubation period elapsed, the reaction was terminated by the addition of an ice-cold IS-containing acetonitrile solution. The samples were vortexed for 2 min and centrifuged at 15,000 RPM for 10 min. The resulting supernatant was filtered through a 0.22-μm organic microporous membrane, and 20 μL of the filtered solution was injected into the HPLC assay. To prevent the organic solvents from inducing or inhibiting the enzyme, the volume fraction of organic solvents in the entire incubation system was maintained at 1%. […] The inhibitor group was added with corresponding inhibitor, while all other procedures remained identical.

CYP2b1 [2] = biological target: T2, CYP2b1; assay: RLM incubation: metabolic clearance rate of bupropion (CYP2b1); conditions: RLM 0.5 mg/mL, 30 min 37°C, inhibitor added, blank control 7.92 ± 0.60, n = 3
Procedure: as §1, §2, §3

Row | Compound | omeprazole AUC(0-t) (CYP2c13) | omeprazole AUC(0-∞) (CYP2c13) | omeprazole CLz/F (CYP2c13) | omeprazole Cmax (CYP2c13) | omeprazole t1/2 z (CYP2c13) | bupropion AUC(0-t) (CYP2b1 [1]) | bupropion AUC(0-∞) (CYP2b1 [1]) | bupropion CLz/F (CYP2b1 [1]) | bupropion Cmax (CYP2b1 [1]) | bupropion t1/2 z (CYP2b1 [1]) | CYP2d2 (%) metabolic clearance rate of probe drug (CYP2d2) | CYP2b1(%) metabolic clearance rate of probe drug (CYP2b1 [2]) | CYP2d2 (%) metabolic clearance rate of probe drug (CYP2d2; RLM 0.5 mg/mL, 30 min 37°C, inhibitor added, probe metoprolol, blank control […] ± 2.12, n = 3)
1 | CCC1(c2ccccc2)C(=O)NC(=O)NC1=O [P, phenobarbital sodium] | 3040 ± 177 ng·h/mL | 3187 ± 239 ng·h/mL | 3,028.688 ± 253.193 mL/h/kg | 535 ± 63 ng/mL | 2.761 ± 0.227 h | 13249 ± 1396 ng·h/mL | 13714 ± 1057 ng·h/mL | 7.53418 ± 1.2563 mL/min/kg | 1151 ± 138 ng/mL | 15.564 ± 0.555 h |  |  | 
2 | S=P(N1CC1)(N1CC1)N1CC1 [Thiotepa] |  |  |  |  |  |  |  |  |  |  | 12.67 ± 0.65% | 2.24 ± 0.16 % | 
3 | O=c1cc(-c2ccccc2)oc2c1ccc1ccccc12 [α-naphthoflavone] |  |  |  |  |  |  |  |  |  |  |  | 8.00 ± 0.97% | 13.12 ± 0.82%
